# Assay results reported in patent US20080125424A1, “Derivatives of urea and related diamines, methods for their manufacture, and uses therefor” (priority 2006, published 2008).
# Biological target: T1, human parathyroid cell Ca2+ receptor (hPCaR) (Homo sapiens, UniProt P41180)
# T1 construct: expressed in transfected cells
# T1 sequence (P41180 20-1078): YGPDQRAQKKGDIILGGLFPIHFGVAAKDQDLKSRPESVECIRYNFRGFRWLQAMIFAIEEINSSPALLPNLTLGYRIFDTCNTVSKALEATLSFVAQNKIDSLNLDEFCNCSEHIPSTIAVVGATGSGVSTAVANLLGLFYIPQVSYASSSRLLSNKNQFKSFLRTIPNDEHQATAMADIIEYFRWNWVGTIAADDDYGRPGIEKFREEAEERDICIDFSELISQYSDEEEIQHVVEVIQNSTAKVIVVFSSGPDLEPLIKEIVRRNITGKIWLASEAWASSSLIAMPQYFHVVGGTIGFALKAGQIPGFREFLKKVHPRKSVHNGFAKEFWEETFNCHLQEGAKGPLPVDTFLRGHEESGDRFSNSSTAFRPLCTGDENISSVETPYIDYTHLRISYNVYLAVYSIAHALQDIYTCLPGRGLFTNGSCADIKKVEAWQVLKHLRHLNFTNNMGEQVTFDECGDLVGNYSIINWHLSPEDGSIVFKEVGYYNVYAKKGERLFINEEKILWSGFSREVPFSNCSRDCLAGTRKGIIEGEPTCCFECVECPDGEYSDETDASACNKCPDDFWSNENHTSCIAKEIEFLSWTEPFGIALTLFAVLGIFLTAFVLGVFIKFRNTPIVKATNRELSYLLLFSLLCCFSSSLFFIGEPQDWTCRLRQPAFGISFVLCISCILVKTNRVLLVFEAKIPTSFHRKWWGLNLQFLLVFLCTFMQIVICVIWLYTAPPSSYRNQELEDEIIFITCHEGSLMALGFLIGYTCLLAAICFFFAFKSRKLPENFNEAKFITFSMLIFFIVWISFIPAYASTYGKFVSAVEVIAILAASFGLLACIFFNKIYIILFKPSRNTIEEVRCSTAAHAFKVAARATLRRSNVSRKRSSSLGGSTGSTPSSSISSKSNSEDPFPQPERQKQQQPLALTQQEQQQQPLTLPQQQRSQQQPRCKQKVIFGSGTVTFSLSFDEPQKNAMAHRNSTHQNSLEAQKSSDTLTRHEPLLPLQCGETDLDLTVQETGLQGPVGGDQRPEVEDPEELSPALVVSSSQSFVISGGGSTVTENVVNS
# Test: [Ca2+]i fluorescence assay in HEK 293 4.0-7 cells expressing hPCaR
# Type: cell-based
# Details: buffer with 1 mM CaCl2
# Protocol: The activities of the compounds of the present invention on calcium receptors were measured. In one embodiment, the measurement was performed in accordance with the method described in Example 4 of Nemeth et al., PCT/US95/13704 (International Publication No. WO96/12697) herein incorporated by reference.
# A 4.0-kb NotI-HindIII fragment of the human parathyroid cell Ca^2+ receptor (hPCaR) cDNA was subcloned into the mammalian expression vector pCEP4 (Invitrogen) containing the hygromycin-resistant gene as a selectable marker. This plasmid was transfected into HEK 293 cells by calcium phosphate precipitation. Transfected cells were grown in Dulbecco's modified Eagle's medium containing 10% fetal bovine serum and hygromycin (200 μg/mL). Hygromycin-resistant colonies were subcloned and assayed for hPCaR mRNA by solution hybridization using a ^32P-labeled RNA probe complementary to the (4.0 kb) hPCaR sequence (Garrett, et al., J. Biol. Chem. 270, 12919-12925 (1995)). Clone 7 was used to assess the effects of compounds on [Ca^2+]i. This stably transfected cell line was termed HEK 293 4.0-7. For measurements of [Ca^2+]i, the cells were recovered from tissue culture flasks by brief treatment with Versene (Invitrogen; Containing 0.2 g/L EDTA.4Na in phosphate-buffered saline) and then seeded in collagen coated 384-well plates (BD Biosciences) at 20K cells per well in the growth media (same as above). Cells were grown in 37c TC incubator overnight. Then, the media was discarded and cells were loaded with 1× dye from Ca^2+ Assay Kit I (BD Biosciences) in parathyroid cell buffer (126 mM NaCl, 4 mM KCl, 1 mM MgSO4, 0.7 mM K2HPO4/KH2PO4, 20 mM HEPES.NaOH (pH 7.45)) containing 0.5% BSA and 1 mM CaCl2. Cells were loaded at room temperature for 90 minutes. Each test compound was added to the cells and the fluorescence was recorded by using excitation and emission wavelengths of 485 and 530 nm, respectively.
row,Structure (SMILES),EC50 [nM]
1,NS(=O)(=O)c1ccc(-c2csc(NC(=O)N(CCCC(=O)O)CCC(c3ccccc3)c3ccccc3)n2)cc1 [Example 124],< 100
2,"CS(=O)(=O)Nc1ccc(-c2csc(NC(=O)N(CCNC(=O)C3CCCNC3)CCC(c3ccccc3)c3ccccc3)n2)cc1 (stereo not drawn) [Example 130, 1-(3,3-diphenylpropyl)-3-(4-(4-(methylsulfonamido)phenyl)thiazol-2-yl)-1-(2-(piperidine-3-carboxamido)ethyl)urea]",< 100
3,"CS(=O)(=O)Nc1ccc(-c2nc(NC(=O)N(CCNC(=O)C3CCCNC3)CCC(c3ccccc3)c3ccccc3)sc2Cl)cc1 (stereo not drawn) [Example 131, 3-(5-chloro-4-(4-(methylsulfonamido)phenyl)thiazol-2-yl)-1-(3,3-diphenylpropyl)-1-(2-(piperidine-3-carboxamido)ethyl)urea]",< 100
4,"CS(=O)(=O)Nc1ccc(-c2nc(NC(=O)N(CCOC(N)=O)CCC(c3ccccc3)c3ccccc3)sc2Cl)cc1 [Example 132, 2-(3-(5-chloro-4-(4-(methylsulfonamido)phenyl)thiazol-2-yl)-1-(3,3-diphenylpropyl)ureido)ethyl carbamate]",< 100
5,"CS(=O)(=O)Nc1ccc(-c2nc(NC(=O)N(CCO)CCC(c3ccccc3)c3ccccc3)sc2Cl)cc1 [Example 133, 3-(5-chloro-4-(4-(methylsulfonamido)phenyl)thiazol-2-yl)-1-(3,3-diphenylpropyl)-1-(2-hydroxyethyl)urea]",< 100
6,"CS(=O)(=O)Nc1ccc(-c2nc(NC(=O)N(CCCO)CCC(c3ccccc3)c3ccccc3)sc2Cl)cc1 [Example 134, 3-(5-chloro-4-(4-(methylsulfonamido)phenyl)thiazol-2-yl)-1-(3,3-diphenylpropyl)-1-(3-hydroxypropyl)urea]",< 100
7,"CS(=O)(=O)Nc1ccc(-c2nc(NC(=O)N(CCN)CCC(c3ccccc3)c3ccccc3)sc2Cl)cc1 [Example 135, 1-(2-aminoethyl)-3-(5-chloro-4-(4-(methylsulfonamido)phenyl)thiazol-2-yl)-1-(3,3-diphenylpropyl)urea]",< 100
8,"CS(=O)(=O)Nc1ccc(-c2nc(NC(=O)N(CCC(c3ccccc3)c3ccccc3)CCS(N)(=O)=O)sc2Cl)cc1 [Example 136, 2-[{[(5-chloro-4-{4-[(methylsulfonyl)amino]phenyl}-1,3-thiazol-2-yl)amino]carbonyl}(3,3-diphenylpropyl)amino]ethanesulfonamide]",< 100
9,"CSCCN(CCC(c1ccccc1)c1ccccc1)C(=O)Nc1nc(-c2ccc(NS(C)(=O)=O)cc2)c(Cl)s1 [Example 137, 3-(5-chloro-4-(4-(methylsulfonamido)phenyl)thiazol-2-yl)-1-(3,3-diphenylpropyl)-1-(2-(methylthio)ethyl)urea]",< 100
10,"CSCCCN(CCC(c1ccccc1)c1ccccc1)C(=O)Nc1nc(-c2ccc(NS(C)(=O)=O)cc2)c(Cl)s1 [Example 138, 3-(5-chloro-4-(4-(methylsulfonamido)phenyl)thiazol-2-yl)-1-(3,3-diphenylpropyl)-1-(3-(methylthio)propyl)urea]",< 100
11,"CS(=O)(=O)NCCN(CCC(c1ccccc1)c1ccccc1)C(=O)Nc1nc(-c2ccc(NS(C)(=O)=O)cc2)c(Cl)s1 [Example 139, 3-(5-chloro-4-(4-(methylsulfonamido)phenyl)thiazol-2-yl)-1-(3,3-diphenylpropyl)-1-(2-(methylsulfonamido)ethyl)urea]",< 100
12,"CS(=O)(=O)Nc1ccc(-c2nc(NC(=O)N(CCN[C@@H]3CCCNC3)CCC(c3ccccc3)c3ccccc3)sc2Cl)cc1 [Example 140, (R)-3-(5-chloro-4-(4-(methylsulfonamido)phenyl)thiazol-2-yl)-1-(3,3-diphenylpropyl)-1-(2-(piperidin-3-ylamino)ethyl)urea]",< 100
13,"CS(=O)(=O)Nc1ccc(-c2nc(NC(=O)N(CCN[C@H]3CCCNC3)CCC(c3ccccc3)c3ccccc3)sc2Cl)cc1 [Example 141, (S)-3-(5-chloro-4-(4-(methylsulfonamido)phenyl)thiazol-2-yl)-1-(3,3-diphenylpropyl)-1-(2-(piperidin-3-ylamino)ethyl)urea]",< 100
14,"O=C1CC[C@H](NCCN(CCC(c2ccccc2)c2ccccc2)C(=O)Nc2nc(-c3ccccc3)c(Cl)s2)CN1 [Example 142, (S)-3-(5-chloro-4-phenylthiazol-2-yl)-1-(3,3-diphenylpropyl)-1-(2-(6-oxopiperidin-3-ylamino)ethyl)urea]",< 100

# Other lines, results leading:
row,EC50 [nM],Structure (SMILES)
1,100 to 1000,"CS(=O)(=O)c1ccc(-c2csc(NC(=O)N(CCC(=O)O)CCC(c3ccccc3)c3ccccc3)n2)cc1 [Example 119, 3-(1-(3,3-diphenylpropyl)-3-(4-(4-(methylsulfonyl)phenyl)thiazol-2-yl)ureido)propanoic acid]"
2,1000 to 5000,"C[C@@H]1CNCCN1C(=O)CCN(CCC(c1ccccc1)c1ccccc1)C(=O)Nc1nc2ccccc2s1 [Example 120, (R)-3-(benzo[d]thiazol-2-yl)-1-(3,3-diphenylpropyl)-1-(3-(2-methylpiperazin-1-yl)-3-oxopropyl)urea]"
3,1000 to 5000,"O=C(O)CCN(CCC(c1ccccc1)c1ccccc1)C(=O)Nc1nc(-c2ccccc2)c(Cl)s1 [Example 121, 3-(3-(5-chloro-4-phenylthiazol-2-yl)-1-(3,3-diphenylpropyl)ureido)propanoic acid]"
4,1000 to 5000,"CC(CN(CCC(c1ccccc1)c1ccccc1)C(=O)Nc1nc2ccccc2s1)C(=O)O (stereo not drawn) [Example 122, 3-(3-(benzo[d]thiazol-2-yl)-1-(3,3-diphenylpropyl)ureido)-2-methylpropanoic acid]"
5,1000 to 5000,"C[C@H]1CNCCN1C(=O)CCN(CCC(c1ccccc1)c1ccccc1)C(=O)Nc1nc2ccccc2s1 [Example 123, (S)-3-(benzo[d]thiazol-2-yl)-1-(3,3-diphenylpropyl)-1-(3-(2-methylpiperazin-1-yl)-3-oxopropyl)urea]"
6,1000 to 5000,"C[C@@H]1CN(C(=O)CCN(CCC(c2ccccc2)c2ccccc2)C(=O)Nc2nc3ccccc3s2)CCN1 [Example 125, (R)-3-(benzo[d]thiazol-2-yl)-1-(3,3-diphenylpropyl)-1-(3-(3-methylpiperazin-1-yl)-3-oxopropyl)urea]"
7,1000 to 5000,"O=C(O)CCN(CCC(c1ccccc1)c1ccccc1)C(=O)Nc1nc(-c2ccccc2)cs1 [Example 126, 3-(1-(3,3-diphenylpropyl)-3-(4-phenylthiazol-2-yl)ureido)propanoic acid]"
8,< 100,"O=C(NCCCCN(CCC(c1ccccc1)c1ccccc1)C(=O)Nc1nc2ccccc2s1)C1CCNCC1 [Example 127, 3-(benzo[d]thiazol-2-yl)-1-(3,3-diphenylpropyl)-1-(4-(piperidine-4-carboxamido)butyl)urea]"
9,< 100,"O=C(NCCCCN(CCC(c1ccccc1)c1ccccc1)C(=O)Nc1nc2ccccc2s1)C1CCCCN1 (stereo not drawn) [Example 128, 3-(benzo[d]thiazol-2-yl)-1-(3,3-diphenylpropyl)-1-(4-(piperidine-2-carboxamido)butyl)urea]"
10,< 100,"O=C(NCCN(CCC(c1ccccc1)c1ccccc1)C(=O)Nc1nc2ccccc2s1)C1CCCNC1 (stereo not drawn) [Example 129, 3-(benzo[d]thiazol-2-yl)-1-(3,3-diphenylpropyl)-1-(2-(piperidine-3-carboxamido)ethyl)urea]"
